Data as given in patent US5654290A, “Polyunsaturated fatty acid based drugs” (Institut National de la Sante et de la Recherche Medicale, priority 1992, dated 1997).
Several values for one entry are separate records, joined by “and”; a condition that tells them apart may be missing. Identical values can stand only once. Like-named read-outs stand apart in the source and are kept apart here. Values belong to the compound of their own block, whether it stands above or below them.

Assays:
[1] = target: T1, TXA2 /PGH2 receptor of the platelet membranes (Homo sapiens, UniProt P21731); experiment: Specific binding of tritiated SQ29,548 to the TXA2/PGH2 receptor of platelet membranes whose PC's or PE's are enriched in 18:2n-6 or DHA; details: for effect on the TXA2 /PGH2 receptor (dissociation constant of SQ29.548): platelet membranes enriched, in words
T1 construct: TXA2 /PGH2 receptor, to platelet membranes whose PC's or PE's are enriched either in 18:2n-6 or in DHA; from tissue; host or cells: platelet membranes (phospholipids exchanged with maize or endogenous platelet transfer protein)
T1 sequence (P21731 1-343): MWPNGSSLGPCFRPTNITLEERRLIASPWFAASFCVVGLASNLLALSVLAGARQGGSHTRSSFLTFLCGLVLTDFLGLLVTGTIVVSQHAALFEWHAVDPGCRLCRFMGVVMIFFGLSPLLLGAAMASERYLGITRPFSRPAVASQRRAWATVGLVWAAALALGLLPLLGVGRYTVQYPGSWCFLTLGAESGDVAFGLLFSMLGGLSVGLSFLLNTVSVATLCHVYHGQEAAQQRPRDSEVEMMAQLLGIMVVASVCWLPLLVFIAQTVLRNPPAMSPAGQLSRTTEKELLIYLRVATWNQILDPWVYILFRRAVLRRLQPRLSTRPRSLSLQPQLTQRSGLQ
Procedure: The diacyl-glycerophosphocholines of the platelet membranes were replaced either with 1-palmitoyl-2-docosa-hexaenoyl-glycerophosphocholine (bars with vertical stripes, "22:6n-3"), or with 1-palmitoyl-2-linoloyl-glycerophosphocholine (bars with horizontal stripes, "18:2n-6"), using the endogenous transfer protein of the platelets which is specific for the phosphatidylinositols and phosphatidylcholines. The control platelet membranes (black bars, "control") are obtained by incubation without addition of phospholipids. The data for the graph represent the mean±S.D. of three independent tests.
The diacyl-glycerophosphoethanolamines of the platelet membranes were replaced either with 1-palmitoyl-2-docosahexaenoyl-glycerophosphoethanolamine (bars with vertical stripes, "22:6n-3"), or with 1-palmitoyl-2-linoloyl-glycerophosphoethanolamine (bars with horizontal stripes "18:2n-6"), using the lipid transfer protein purified from maize. The control platelet membranes (black bars, "control") are obtained by incubation without addition of phospholipids. The data for the graph represent the mean±S.D. of three independent tests.
Preparations of esterified DHA into various classes of phospholipids were carried out using phospholipid transfer proteins in order to enrich, in a specific manner, the phosphatidylcholines (PC) and the phosphatidylethanolamines (PE) of the platelet membranes in linoleic acid (18:2n-6) and in DHA (49). In particular, the transfer protein (PT), which is specific for the PC's and purified from bovine liver, was used to modify the composition of molecular species of the PC's of erythrocytes (49).
In the procedure used in the present example, the endogenous quantity of platelet phospholipids is not altered by the transfer carried out by means of the maize or platelet PT; nevertheless, the phospholipids were enriched in 18:2n-6 or in DHA.
The influence of the fatty acids on the TXA2 /PGH2 receptor was established by measuring the specific binding of tritiated SQ29,548, a competitive antagonist of the TXA2 /PGH2 receptor, to platelet membranes whose PC's or PE's are enriched either in 18:2n-6 or in DHA.

brain = experiment: Distribution of the radioactivity between the lipid classes of the brain after intravenous injection of lyso-PCDHA or non-esterified DHA; format: in vivo, rat; details: injection of non-esterified DHA
Text: (§1) The animal studied is a 20-day-old rat in which the cerebral lipid metabolism is at its peak.
(§2) The lyso-PC's are labelled on the fatty acid and the choline, attached to albumin and administered intravenously (50). […] It therefore appears that the lyso-PCDHA's attached to albumin constitute a particularly preferred form of supply of DHA to the developing brain.

kidney = experiment: Capture by the kidney, in rats, of lyso-PCDHA and non-esterified DHA; format: in vivo; details: 20-day-old rat, intravenous; lyso-PCDHA vs non-esterified DHA
Text: FIG. 3 represents the variation of the radio-activity recovered in the total lipids: A from the brain, B from the kidney, C from the heart and D from the liver, after injecting tritiated DHA in free form (black circle) or in the form of 2-DHA-1-lyso-PC (black triangle).
as §1, §2

[2] = individual test, platelet membranes, PC's enriched
[3] = mean of three tests, PC's enriched
[4] = individual test, platelet membranes, PE's enriched
[5] = individual test, platelet membranes, PE's enriched, read-out: Kd of SQ 29.548
[6] = mean of three tests, PE's enriched
[7] = mean of three tests, PE's enriched, read-out: Kd of SQ 29.548

- Hill Coefficient [1, 2]: 0.91 and 1.00 and 0.94
- Kd ([1]; individual test, platelet membranes, PC's enriched, read-out: Kd of SQ 29.548): 5.69 nM and 8.56 nM and 7.05 nM
- Bmax of SQ 29.548 [1, 3]: 2.48 ± 0.43 pmol/mg prot.
- Hill Coefficient [1, 3]: 0.95 ± 0.05
- Kd ([1]; mean of three tests, PC's enriched, (a) p < 0.05 compared with the control and with PC 18:2n6 for PC 22:6n-3, read-out: Kd of SQ 29.548): 7.1 ± 1.44 nM
Structure (SMILES): CC/C=C\C/C=C\C/C=C\C/C=C\C/C=C\C/C=C\CCC(=O)OC(COC(=O)CCCCCCCCCCCCCCC)COP(=O)([O-])OCC[N+](C)(C)C (stereo not shown) [PC 22:6n-3, 1-palmitoyl-2-docosahexaenoyl-glycerophosphocholine]
- Bmax of SQ 29.548 [1, 2]: 2.94 pmol/mg prot. and 2.09 pmol/mg prot. and 2.40 pmol/mg prot.
- effect on the TXA2 /PGH2 receptor (dissociation constant of SQ29.548) [1]: significantly increasing the dissociation constant of SQ29.548

- Hill Coefficient [1, 4]: 0.94 and 1.00 and 1.05
- Kd [1, 5]: 3.11 nM and 4.31 nM and 4.92 nM
- Bmax of SQ 29.548 [1, 6]: 2.07 ± 0.19 pmol/mg prot.
- Hill Coefficient [1, 6]: 1.00 ± 0.06
- Kd [1, 7]: 4.11 ± 0.92 nM
- effect on the TXA2 /PGH2 receptor (dissociation constant of SQ29.548) [1]: no effect on the receptor
Structure (SMILES): CCCCC/C=C\C/C=C\CCCCCCCC(=O)OC(COC(=O)CCCCCCCCCCCCCCC)COP(=O)(O)OCCN (stereo not shown) [PE 18:2n-6, 1-palmitoyl-2-linoloyl-glycerophosphoethanolamine]
- Bmax of SQ 29.548 [1, 4]: 1.89 pmol/mg prot. and 2.26 pmol/mg prot. and 2.07 pmol/mg prot.

- Hill Coefficient [1, 4]: 0.95 and 1.02
- Kd [1, 5]: 2.92 nM and 4.61 nM and 4.63 nM
- Bmax of SQ 29.548 [1, 6]: 1.86 ± 0.17 pmol/mg prot.
- Hill Coefficient [1, 6]: 1.00 ± 0.04
- Kd [1, 7]: 4.05 ± 0.98 nM
- effect on the TXA2 /PGH2 receptor (dissociation constant of SQ29.548) [1]: no effect on the receptor
Structure (SMILES): CC/C=C\C/C=C\C/C=C\C/C=C\C/C=C\C/C=C\CCC(=O)OC(COC(=O)CCCCCCCCCCCCCCC)COP(=O)(O)OCCN (stereo not shown) [PE 22:6n-3, 1-palmitoyl-2-docosahexaenoyl-glycerophosphoethanolamine]
- Bmax of SQ 29.548 [1, 4]: 1.67 pmol/mg prot. and 1.99 pmol/mg prot. and 1.91 pmol/mg prot.

The next lines start with the compound.

Structure (SMILES): CCCCC/C=C\C/C=C\CCCCCCCC(=O)OC(COC(=O)CCCCCCCCCCCCCCC)COP(=O)([O-])OCC[N+](C)(C)C (stereo not shown) [PC 18:2n-6, 1-palmitoyl-2-linoloyl-glycerophosphocholine]
- Kd ([1]; Kd of SQ 29.548, individual test, platelet membranes, PC's enriched): 4.64 nM and 3.16 nM and 4.05 nM
- Kd ([1]; Kd of SQ 29.548, mean of three tests, PC's enriched, (a) p < 0.05 compared with the control and with PC 18:2n6 for PC 22:6n-3): 3.95 ± 0.75 nM
- Bmax of SQ 29.548 [1, 2]: 1.83 pmol/mg prot. and 1.91 pmol/mg prot. and 2.41 pmol/mg prot.
- Hill Coefficient [1, 2]: 1.00 and 0.94 and 0.90
- Bmax of SQ 29.548 [1, 3]: 2.05 ± 0.31 pmol/mg prot.
- Hill Coefficient [1, 3]: 0.95 ± 0.05
- effect on the TXA2 /PGH2 receptor (dissociation constant of SQ29.548) [1]: no effect on the receptor

Structure (SMILES): CC/C=C\C/C=C\C/C=C\C/C=C\C/C=C\C/C=C\CCC(=O)O [non-esterified DHA, docosahexaenoic acid, reference compound]
- radioactivity in LN + AG of the brain (brain; 2.5 min): 36.7 % of the radioactivity of the total lipids
- radioactivity in PC of the brain (brain; 2.5 min): 18.8 % of the radioactivity of the total lipids
- radioactivity in PE of the brain (brain; 2.5 min): 37.5 % of the radioactivity of the total lipids
- radioactivity in PI of the brain (brain; 2.5 min): 2.7 % of the radioactivity of the total lipids
- radioactivity in PS of the brain (brain; 2.5 min): 4.0 % of the radioactivity of the total lipids
- radioactivity in LN + AG of the brain (brain; 5 min): 19.0 % of the radioactivity of the total lipids
- radioactivity in PC of the brain (brain; 5 min): 23.2 % of the radioactivity of the total lipids
- radioactivity in PE of the brain (brain; 5 min): 48.1 % of the radioactivity of the total lipids
- radioactivity in PI of the brain (brain; 5 min): 5.1 % of the radioactivity of the total lipids
- radioactivity in PS of the brain (brain; 5 min): 4.6 % of the radioactivity of the total lipids
- radioactivity in LN + AG of the brain (brain; 7.5 min): 30.0 % of the radioactivity of the total lipids
- radioactivity in PC of the brain (brain; 7.5 min): 21.1 % of the radioactivity of the total lipids
- radioactivity in PE of the brain (brain; 7.5 min): 44.4 % of the radioactivity of the total lipids
- radioactivity in PI of the brain (brain; 7.5 min): 2.6 % of the radioactivity of the total lipids
- radioactivity in PS of the brain (brain; 7.5 min): 1.8 % of the radioactivity of the total lipids
- radioactivity in LN + AG of the brain (brain; 8 min): 31.6 % of the radioactivity of the total lipids
- radioactivity in PC of the brain (brain; 8 min): 19.6 % of the radioactivity of the total lipids
- radioactivity in PE of the brain (brain; 8 min): 40.7 % of the radioactivity of the total lipids
- radioactivity in PI of the brain (brain; 8 min): 3.8 % of the radioactivity of the total lipids
- radioactivity in PS of the brain (brain; 8 min): 4.3 % of the radioactivity of the total lipids
- radioactivity in LN + AG of the brain (brain; 15 min): 20.8 % of the radioactivity of the total lipids
- radioactivity in PC of the brain (brain; 15 min): 25.7 % of the radioactivity of the total lipids
- radioactivity in PE of the brain (brain; 15 min): 49.1 % of the radioactivity of the total lipids
- radioactivity in PI of the brain (brain; 15 min): 3 % of the radioactivity of the total lipids
- radioactivity in PS of the brain (brain; 15 min): 2.9 % of the radioactivity of the total lipids
- radioactivity in LN + AG of the brain (brain; 30 min): 20.4 % of the radioactivity of the total lipids
- radioactivity in PC of the brain (brain; 30 min): 24.8 % of the radioactivity of the total lipids
- radioactivity in PE of the brain (brain; 30 min): 48.4 % of the radioactivity of the total lipids
- radioactivity in PI of the brain (brain; 30 min): 3.4 % of the radioactivity of the total lipids
- radioactivity in PS of the brain (brain; 30 min): 2.9 % of the radioactivity of the total lipids
- radioactivity in LN + AG of the brain (brain; 60 min): 12.5 % of the radioactivity of the total lipids
- radioactivity in PC of the brain (brain; 60 min): 24.3 % of the radioactivity of the total lipids
- radioactivity in PE of the brain (brain; 60 min): 54.1 % of the radioactivity of the total lipids
- radioactivity in PI of the brain (brain; 60 min): 2.8 % of the radioactivity of the total lipids
- radioactivity in PS of the brain (brain; 60 min): 6.3 % of the radioactivity of the total lipids
- capture by the kidney (kidney): captures the two forms of supply in essentially the same manner
